Results from patent publication US10947188B2, “Small molecule ferroptosis inducers” (THE TRUSTEES OF COLUMBIA UNIVERSITY IN THE CITY OF NEW YORK, priority 2016, dated 2021).
Converted amounts (≈) assume the structure as drawn.

Experiments:
[1] = tested on: HT-1080 cells; test: Lethality of commercially available CIL41/70 structural analogs; format: cell-based; conditions: Homo sapiens, tested once in technical triplicates
Procedure: 1,000 cells per 36 μl were seeded in each well in 384-well plates. Lethal compounds were dissolved, and a twofold, 12-point dilution series was prepared in DMSO. Compound solutions were further diluted with media at 1:25, and 4 μl per well of the diluted solutions was added to cell cultures immediately after cells were seeded. […] When other cell-death-modulating compounds (100 nM sodium selenite, 1 μM cerivastatin, 100 μg/mL mevalonic acid) were used in cotreatments, they were supplemented to cell culture for 24 h before lethal compounds were added to cell culture, after which cells were further incubated for 24 h at 37° C. under 5% CO2. On the day of the viability measurement, we added 10 μl per well of 50% Alamar Blue diluted in media (Life Technologies) and further incubated the cells at 37° C. for 6 h. Fluorescence intensity (excitation/emission: 530/590) was measured with a Victor 3 plate reader (PerkinElmer), and the normalized viability was calculated as VL=(IL−I0)/(IV−I0), where VL, I0, IV, and IL are the normalized viability and the raw fluorescence intensities from the wells containing media, cells treated with a vehicle (negative control), and cells with the lethal compound (L), respectively. When the effect of a chemical modulator (M) on L was calculated, we instead used the equation VL|M=(IM,L−I0)/(IM,V−I0), where VL|M, IM,L and IM,V are the normalized viability, and fluorescence intensity from cells treated with […], respectively. The viability was typically measured in biological triplicate unless otherwise specified. A representative dose-response curve, the mean and standard error of normalized viability from one replicate were plotted. HT-1080 viability after modulator treatments corresponding to FIG. 3C and FIGS. 5E-5F is available in FIGS. 19A-19C.
Their lethality was tested once in HT-1080 cells in technical triplicates.

[2] = tested on: BJeLR; test: Modulatory profiling: Alamar Blue viability, lethal compound cotreated with death modulator (EC50, AUC); format: cell-based, human; set-up: AUC, modulator BJ.Gd3+ / AUC, modulator BJ.LNAME / AUC, modulator BJ.Lmin / AUC, modulator BJ.3MA / AUC, modulator BJ.ALLN / AUC, modulator BJ.Boc D / AUC, modulator BJ.CHX / AUC, modulator BJ.Co2+ / AUC, modulator BJ.Nec-1 / AUC, modulator BJ.Pepstatin / AUC, modulator BJ.TLCK / AUC, modulator BJ.atoc / AUC, modulator BJ.trolox / AUC, modulator BJ.zVAD: unit not given beside the values; conditions: BJeLR cells, modulatory profile value (AUC)
[3] = tested on: HT-1080; test: as above; format: cell-based; set-up: AUC, modulator HT.3MA / AUC, modulator HT.ALLN / AUC HT.ATA / AUC HT.ActD / AUC HT.BHA / AUC HT.BHT / AUC HT.BocD / AUC HT.CHX / AUC HT.Co2+ / AUC HT.DPQ / AUC HT.EGTA / AUC HT.Lmim / AUC HT.NAD+ / AUC HT.Nec-1 / AUC HT.SP600125 / AUC HT.TLCK / AUC HT.U0126: unit not given beside the values

Structure (SMILES): Cc1nn(C/C(N)=N/OC(=O)C(C)C)c(C)c1[N+](=O)[O-] [ZE4]
- EC50 [1]: > 20 µg/mL

Structure (SMILES): N/C(Cc1ccc(Cl)cc1Cl)=N\OC(=O)C1CCCCC1 [AS1]
- EC50 [1]: > 20 µg/mL

Structure (SMILES): CCC(C(=O)O/N=C(\N)Cc1ccc(Cl)cc1Cl)c1ccccc1 (stereo not shown) [CB98]
- EC50 [1]: 4.46 µg/mL (≈ 12.2 µM)

Structure (SMILES): Cc1ccc(OC/C(N)=N/OC(=O)CCn2cc(C(F)(F)F)ccc2=O)cc1 [MB17]
- EC50 [1]: > 20 µg/mL

Structure (SMILES): N/C(=N\OC(=O)Cc1ccccc1F)C12CC3CC(CC(C3)C1)C2 [EN8]
- EC50 [1]: > 20 µg/mL

Structure (SMILES): Cc1ccc(Cl)cc1N1CCN(C/C(N)=N/OC(=O)CCC(=O)NC2CCCCC2)CC1 [CD1]
- EC50 [1]: > 20 µg/mL

Structure (SMILES): CC(C)(Oc1ccc(Cl)cc1)C(=O)O/N=C(\N)Cc1ccc(Cl)c(Cl)c1 [CB116]
- EC50 [1]: 5.49 µg/mL (≈ 13.2 µM)

Structure (SMILES): COc1ccc(CC(=O)O/N=C(\N)Cc2ccc(Cl)cc2Cl)cc1OC [CB59]
- EC50 [1]: > 20 µg/mL

Structure (SMILES): COc1ccccc1CC(=O)O/N=C(\N)Cc1ccc([N+](=O)[O-])cc1 [CB99]
- EC50 [1]: > 20 µg/mL

Structure (SMILES): Cc1cccc(OCC(=O)O/N=C(/N)Cn2nc(C)c([N+](=O)[O-])c2C)c1 [ZE13]
- EC50 [1]: > 20 µg/mL

Structure (SMILES): Cc1nn(C/C(N)=N/OC(=O)C2CCCCC2)c(C)c1Br [ZE1]
- EC50 [1]: > 20 µg/mL

Structure (SMILES): COc1ccccc1C/C(N)=N/OC(=O)COc1cc(C)cc(C)c1C [CB126]
- EC50 [1]: 9.3 µg/mL (≈ 26.1 µM)

Structure (SMILES): N/C(Cc1ccc([N+](=O)[O-])cc1)=N\OC(=O)Cc1cccs1 [CB103]
- EC50 [1]: > 20 µg/mL

Structure (SMILES): COc1ccccc1C/C(N)=N/OC(=O)Cc1ccc(Cl)cc1 [CB12]
- EC50 [1]: > 20 µg/mL

Structure (SMILES): N/C(Cc1ccc([N+](=O)[O-])cc1)=N\OC(=O)CCCc1ccccc1 [CB77]
- EC50 [1]: > 20 µg/mL

Structure (SMILES): N/C(Cc1ccc(Cl)cc1Cl)=N\OC(=O)CC1CCCCC1 [CB128]
- EC50 [1]: > 20 µg/mL

Structure (SMILES): Cc1cccc(OCC(=O)O/N=C(\N)Cc2cccc3ccccc23)c1 [CB44]
- EC50 [1]: > 20 µg/mL

Structure (SMILES): CC(=O)O/N=C(N)/C(N)=N/OC(C)=O [ZE17]
- EC50 [1]: > 20 µg/mL

Structure (SMILES): Cc1cc(OCC(=O)O/N=C(\N)Cc2ccc([N+](=O)[O-])cc2)ccc1Cl [CB71]
- EC50 [1]: > 20 µg/mL

Structure (SMILES): N/C(Cc1cccs1)=N\OC(=O)COc1ccc(Br)cc1 [CB30]
- EC50 [1]: > 20 µg/mL

Structure (SMILES): Cc1ccc(CC(=O)O/N=C(\N)Cc2ccc([N+](=O)[O-])cc2)cc1 [CB139]
- EC50 [1]: > 20 µg/mL

Structure (SMILES): CCc1nc(C)ccc1OC/C(N)=N/OC(C)=O [CB1]
- EC50 [1]: > 20 µg/mL

Structure (SMILES): N/C(Cc1cccc2ccccc12)=N\OC(=O)CCC1CCCCC1 [CB105]
- EC50 [1]: > 20 µg/mL

Structure (SMILES): CC(C)(C)C(=O)O/N=C(\N)Cc1ccc(-c2csnn2)cc1 [MB6]
- EC50 [1]: 6.48 µg/mL (≈ 20.4 µM)

Structure (SMILES): N/C(Cc1ccc([N+](=O)[O-])cc1)=N\OC(=O)COc1ccc(Cl)cc1Br [CB144]
- EC50 [1]: > 20 µg/mL

Structure (SMILES): CC(Cl)(Cl)C(=O)O/N=C1\CCCCCN1 [EN4]
- EC50 [1]: > 20 µg/mL

Structure (SMILES): COc1ccc(OCC(=O)O/N=C(\N)Cc2ccc(Cl)cc2Cl)cc1 [CB72]
- EC50 [1]: > 20 µg/mL

Structure (SMILES): CC(C)(C)CC(=O)O/N=C(\N)C1(c2ccc(Cl)cc2Cl)CC1 [MB9]
- EC50 [1]: > 20 µg/mL

Structure (SMILES): Cc1cccc(OCC(=O)O/N=C(\N)Cc2ccc(Cl)cc2)c1 [CB34]
- EC50 [1]: > 20 µg/mL

Structure (SMILES): Cc1ccc(CC(=O)O/N=C(\N)Cc2cccc3ccccc23)cc1 [CB132]
- EC50 [1]: > 20 µg/mL

Structure (SMILES): Cc1ccc(OCC(=O)O/N=C(\N)Cc2ccc([N+](=O)[O-])cc2)c(C)c1 [CB16]
- EC50 [1]: > 20 µg/mL

Structure (SMILES): Cc1[nH]c2c(ccc3ccccc32)c1C1C(CCN)C1(C)C (stereo not shown) [CIL74]
- AUC, modulator BJ.3MA ([2]; lethal compound cotreated with modulator 3MA): 0.03615
- AUC, modulator BJ.ALLN ([2]; lethal compound cotreated with modulator ALLN): −0.02536
- AUC, modulator BJ.Boc D ([2]; lethal compound cotreated with modulator Boc D): 0.04324
- AUC, modulator BJ.CHX ([2]; lethal compound cotreated with modulator CHX): 0.01466
- AUC, modulator BJ.Co2+ ([2]; lethal compound cotreated with modulator Co2+): 0.2135
- AUC, modulator BJ.DPQ ([2]; lethal compound cotreated with modulator DPQ): −0.02906
- AUC, modulator BJ.Gd3+ ([2]; lethal compound cotreated with modulator Gd3+): 0.02963
- AUC, modulator BJ.LNAME ([2]; lethal compound cotreated with modulator LNAME): 0.001619
- AUC, modulator BJ.Lmin/NAD+ ([2]; lethal compound cotreated with modulator Lmin/NAD+): 0.07154
- AUC, modulator BJ.Lmin ([2]; lethal compound cotreated with modulator Lmin): 0.007766
- AUC, modulator BJ.NAD+ ([2]; lethal compound cotreated with modulator NAD+): −0.05906
- AUC, modulator BJ.NMMA ([2]; lethal compound cotreated with modulator NMMA): 0.01059
- AUC, modulator BJ.Nec-1 ([2]; lethal compound cotreated with modulator Nec-1): −0.02489
- AUC, modulator BJ.Pepstatin ([2]; lethal compound cotreated with modulator Pepstatin): 0.08294
- AUC, modulator BJ.TLCK ([2]; lethal compound cotreated with modulator TLCK): −0.02942
- AUC HT.ATA ([3]; HT-1080, modulator ATA): 0.01362
- AUC HT.ActD ([3]; HT-1080, modulator ActD): 0.02636
- AUC HT.BHA ([3]; HT-1080, modulator BHA): −0.08659
- AUC HT.BHT ([3]; HT-1080, modulator BHT): −0.04572
- AUC HT.BocD ([3]; HT-1080, modulator BocD): 0.01242
- AUC HT.CHX ([3]; HT-1080, modulator CHX): 0.02524
- AUC HT.Co2+ ([3]; HT-1080, modulator Co2+): 0.03244
- AUC HT.CspA ([3]; HT-1080, modulator CspA): −0.004622
- AUC HT.DPQ ([3]; HT-1080, modulator DPQ): 0.04847
- AUC HT.EGTA ([3]; HT-1080, modulator EGTA): −0.02674
- AUC HT.Gd3+ ([3]; HT-1080, modulator Gd3+): −0.008213
- AUC HT.LNAME ([3]; HT-1080, modulator LNAME): 0.01925
- AUC HT.Lmim ([3]; HT-1080, modulator Lmim): 0.02034
- AUC HT.NAD+ ([3]; HT-1080, modulator NAD+): 0.07664
- AUC HT.NMMA ([3]; HT-1080, modulator NMMA): 9.3282E−05
- HT.atoc (AUC) ([3]; HT-1080, modulator atoc): 0.07412
- HT.bCarotene (AUC) ([3]; HT-1080, modulator bCarotene): −0.02032
- HT.deferox (AUC) ([3]; HT-1080, modulator deferox): −0.008945
- HT.digoxin (AUC) ([3]; HT-1080, modulator digoxin): −0.02586
- HT.trolox (AUC) ([3]; HT-1080, modulator trolox): −0.0236
- HT.zVAD (AUC) ([3]; HT-1080, modulator zVAD): 0.01022
